Results on 6 molecules are retold here after paper PMC6985102 (Scientific Reports, 2020).

Data set [1] can be described thus: Stability of selenocompound in plasma and selenol derivative in processed sample (RECID). The data set is classed as in vitro ADME, human. The method, then: 48 Supplementary Table 7. Stability of selenocompound in plasma and selenol derivative in
49 processed sample. SeC-spiked plasma was treated as indicated and then analyzed using
50 RECID. SeC-NEM in processed sample was treated in the same way and then subjected to
51 LC-MS analysis. Stability was shown as the percentage of the peak area after indicated
52 treatment to that from base line value. SeC concentrations were 20 µg/mL. Results are shown
53 as the mean ± SD of three technical replicates.
SeC Sample Type Treatment
RT/24 hr 4 °C/24 hr -20 °C/24 hr Freeze-Thaw/5 Cycles

Data set [2] deals with T1, BSA (Bos taurus, UniProt P02769). The data set is described as follows: Albumin binding degree by ultrafiltration. The data set is classed as in vitro ADME, bovine. Further details: purchased Thermo Fisher. The settings on record: 5% albumin solution, SeC 20 µg/mL. Here is the method:
Two hundred µL of SeC solution were mixed with equal volume of H2O (control) or 5% BSA solution (final SeC concentration being 20 µg/mL). The mixture was transferred into an ultrafiltration tube (cut off 10 kDa, Sigma-Aldrich, 13239E) and centrifuged (2000 g and 5 min) to obtain the ultra-filtrate. Twenty µL of the ultra-filtrate were mixed with 50 µL of ACN and analyzed for SeC in parent form. Albumin binding degree was calculated as the percentage of SeC peak area in BSA solution in relative to that in H2O.

Another data set relates to C1498 cells. The data set can be described thus: Cytotoxicity of SeC (CellTiter-Glo). The settings on record: C1498 leukemic cells, 24 hr, within the concentration range tested. The method, then:
C1498 cells were cultured in DMEM supplemented with FBS (10%, v/v), penicillin (100 unit/mL) and streptomycin (100 µg/mL). Cells under the exponential growth phase were used for the cytotoxicity study. […] The stock solutions were diluted with cell culture medium till target concentration range. Briefly, 350 µL of cell suspension (0.2 × 10^6 cells/mL) were mixed with equal volume of SeC solution. The mixture was aliquoted to 96-well plate (100 µL per well) and incubated for 24 hours. Cell viability was determined using CellTiter-Glo kit (Promega, G7571). Cells treated with the appropriate solvent were used as the control. Cell survival rate was calculated as the percentage of […] in SeC-treated cells/control group.
(In general: Cellular ATP, detected with luciferase, serves as a proxy for viable cell number.)

The target of data set [3] is T1, BSA. The data set is described as follows: Extraction efficiency of parent SeC after deproteinization (BSA, NEM-pretreated BSA). The method, then: The spiked matrix was obtained by adding 10 µL of SeC solution into 10 µL of blank plasma or 5% BSA solution. To extract the parent SeC from the prepared spiked matrix (20 µL), 50 µL of ACN were added followed by rigorous vortexing. The mixture was centrifuged (30,000 g, 10 min) to obtain the extract. Two µL of the extract were injected into the liquid chromatography-mass spectrometry (LC-MS, Thermo TSQ Quantum Ultra) analyzer. Details about LC conditions (column, mobile phase and flow rate) and MS parameters were listed in Supplementary Table 1.
To clarify the role of albumin thiols, 10 µL of 5% BSA solution were pre-incubated with NEM (10 µL, 0.4 M in DMA) for 10 min before being mixed with SeC solution (10 µL). Again, 50 µL of ACN were used for extraction and 2 µL of the extract were injected into LC-MS for analysis.

In another data set the target is human serum albumin (Homo sapiens, UniProt P02768). The data set is described as follows: XAS linear combination fitting of SeC-human plasma mixture (SeC-HP). Particulars: XANES linear combination fitting, total SeC 20 µg/ml; for SeC-HSA (%): albumin-bound share in SeC-human plasma mixture; for SeC (%): free SeC share in SeC-human plasma mixture. Here is the method: SeC solution (40 µL; 2 mg/mL) was mixed with HSA (50 mg/mL in H2O; […]) and kept at room temperature for 30 min. The crude material was separated on a Superdex 200 Increase 10/300 GL column (GE Healthcare). The mobile phase consisted of ACN/H2O (5/95; v/v) at a flow rate of 0.75 mL/min. A total of 40 fractions (1 ml per fraction) approximately were collected, pooled and lyophilized (selenol-human serum albumin conjugate; SeC-HSA).
human serum albumin, sequence (P02768 25-609): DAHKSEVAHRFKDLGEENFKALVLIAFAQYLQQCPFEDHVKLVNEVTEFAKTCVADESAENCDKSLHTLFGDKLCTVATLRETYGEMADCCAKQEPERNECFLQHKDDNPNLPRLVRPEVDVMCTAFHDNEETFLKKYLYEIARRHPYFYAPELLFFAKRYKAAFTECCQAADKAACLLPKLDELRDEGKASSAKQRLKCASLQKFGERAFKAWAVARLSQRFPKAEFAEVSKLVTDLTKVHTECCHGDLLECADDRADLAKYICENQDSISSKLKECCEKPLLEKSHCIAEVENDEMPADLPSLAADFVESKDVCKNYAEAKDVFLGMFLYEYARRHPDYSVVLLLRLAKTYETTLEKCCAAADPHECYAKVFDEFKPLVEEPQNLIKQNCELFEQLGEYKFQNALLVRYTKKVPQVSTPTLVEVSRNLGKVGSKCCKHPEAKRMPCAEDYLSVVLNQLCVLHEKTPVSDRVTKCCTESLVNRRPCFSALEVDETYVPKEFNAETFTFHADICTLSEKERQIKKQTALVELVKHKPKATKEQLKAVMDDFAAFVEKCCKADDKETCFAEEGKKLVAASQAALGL
The mixture of SeC and human plasma (SeC-HP) was prepared. Generally, SeC solution (20 µL; 2 mg/mL) was mixed with 2 mL human plasma, kept at room temperature for 10 min and lyophilized. Selenium K-edge XAS measurements were performed in QEXAFS mode using a Si(311) double-crystal monochromator in CLAESS beamline at ALBA synchrotron light facility (Barcelona, Spain). Self-supported 5 mm pellets of SeC-HSA or SeC-HP (~20 mg) were measured in fluorescence mode using a 5 elements Silicon drift detector. For the reference compounds, the appropriate amount of pure SeC was mixed with cellulose to form pellets with an optimum absorption jump in transmission mode. Transmission was measured with ionization chambers filled with appropriate mixtures of N2 and Kr gases. To avoid radiation damage, all measurements were performed at liquid N2 temperature using the cryostat available at the beamline. Data analysis was performed using Demeter software package (version 0.9.26)[23].
In order to confirm the albumin binding, SeC was firstly allowed to react with HSA. The crude material was then separated by size exclusion chromatography and the eluent corresponding to […] was collected and lyophilized (SeC-HSA). SeC-HSA was subsequently subjected to XAS measurement and compared to the SeC itself. […] In addition, since the XAS spectra of mixtures can be expressed as an additive combination of its constituents, a linear combination fitting analysis using the reference spectra of SeC-HSA and SeC was carried out to assess the amount of each form in the mixture of SeC and human plasma (SeC-HP).
27 Supplementary Table 3. Linear combination fitting results of X-ray absorption near
28 edge spectra. The fitting was performed over the spectra for selenocompound-human plasma
29 mixture between -20 and 50 eV keeping E0 fixed and equal to 0 eV.

A short description of data set [4]: Pharmacokinetic study in mouse. The settings on record: for clearance / half-life: C57BL/6 albino, iv. The method, then:
Blank plasma (10 µL) was spiked with 5 µL of SeC solution. NEM (10 µL, 0.4 M in DMA) and TCEP (5 µL, 0.2 M in H2O) were successively added to the spiked plasma. The mixture was vortexed for 30 sec and left for 10 min at room temperature before deproteinization using 50 µL of ACN. Two µL of processed sample were injected for LC-MS analysis (LC-MS parameters listed in Supplementary Table 2).
All animal experiments were approved by the Stockholm Southern Ethical Committee and performed in accordance with Swedish Animal Welfare Law (ethical permit no. ID 1031). CysSe2 (0.7 mg/mL) or MeSeA (1 mg/mL) was prepared in DPBS and the pH was adjusted to around 7.4. Ebselen or p-XSC was first dissolved in DMSO/Cremophor EL (1:1, v/v) at 5 mg/mL and then diluted with DPBS till 0.5 mg/mL. CysSe2 or MeSeA was injected into C57BL/6 albino mouse via the tail vein at a dose of 5 mg/kg; while the dose for ebselen and p-XSC was 2 mg/kg. Approximately 50 µL of blood were collected from the facial vein at different time points into EDTA-coated vials. SeC concentration in plasma was analyzed as described under section “Analysis of SeC using RECID”. The detected concentrations were fitted to a bolus injection in a one-compartment open model and the pharmacokinetic parameters were calculated using WinNonLin software (version 2.0).

[5] abbreviates: Spiked Plasma, 4 °C/24 hr, SeC 20 µg/mL.
Where [6] appears, read: Spiked Plasma, -20 °C/24 hr, SeC 20 µg/mL.
Where [7] appears, read: Spiked Plasma, Freeze-Thaw/5 Cycles, SeC 20 µg/mL.
Where [8] appears, read: Spiked Plasma, RT/24 hr, SeC 20 µg/mL.
[9] abbreviates: 5% BSA (pristine albumin) after deproteinization, SeC 20 µg/mL.
Where [10] appears, read: NEM pretreated-BSA (albumin thiols blocked) after deproteinization, SeC 20 µg/mL.

T1 sequence (P02769 25-607): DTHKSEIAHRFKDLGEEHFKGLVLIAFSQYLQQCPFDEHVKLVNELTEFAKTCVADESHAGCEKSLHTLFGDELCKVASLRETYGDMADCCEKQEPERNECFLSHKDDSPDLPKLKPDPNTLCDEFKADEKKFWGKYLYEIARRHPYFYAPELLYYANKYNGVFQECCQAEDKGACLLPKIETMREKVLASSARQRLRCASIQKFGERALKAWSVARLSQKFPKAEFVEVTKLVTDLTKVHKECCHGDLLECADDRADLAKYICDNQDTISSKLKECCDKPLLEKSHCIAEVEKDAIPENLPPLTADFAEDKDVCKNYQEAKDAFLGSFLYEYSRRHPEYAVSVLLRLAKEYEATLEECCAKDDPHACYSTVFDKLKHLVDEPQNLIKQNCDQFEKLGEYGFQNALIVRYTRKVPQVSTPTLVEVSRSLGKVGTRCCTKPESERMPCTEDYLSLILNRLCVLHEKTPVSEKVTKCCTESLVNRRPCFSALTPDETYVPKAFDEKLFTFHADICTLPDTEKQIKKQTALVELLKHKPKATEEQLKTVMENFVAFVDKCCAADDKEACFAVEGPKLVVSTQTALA

For orientation: clearance means the rate of elimination divided by the concentration. A word on the half-life: it is how long it takes for the measured level to halve. Lower therefore signals fast loss. On to `NC(C[Se][Se]CC(N)C(=O)O)C(=O)O` (stereo not shown) [CysSe2, Selenocystine], for which the “Stability (peak area vs base line)” value in data set [1] (setting [5]) is 100.9 ± 7.9%; in data set [1] (setting [6]) it was 99.6 ± 6.4%; in data set [1] (setting [7]) it was 102.2 ± 0.6%; in data set [1] (setting [8]), 98.6 ± 7.1%. Moreover, the Albumin binding degree at BSA [2] was 52–100%. The Cytotoxicity result in the data set with C1498 cells is “showed cytotoxicity”. In addition, the Extraction efficiency at BSA [3] (setting [9]) was 21.4%; on BSA [3] (setting [10]) it was 79.6%. Besides, the “SeC-HSA (%)” value on human serum albumin was found to be 80.4%. The “SeC (%)” value on human serum albumin is recorded as 19.6%. This molecule also had a clearance in data set [4] (plasma) of 0.642 mL/min. This molecule yielded a half-life in data set [4] (plasma) of 8.4 ± 1.2 min. Besides, in data set [4] (intravenous, CysSe2 5 mg/kg vs ebselen 2 mg/kg), the “Total exposure compared to that of ebselen” value was “around 72%”. Besides, the “Exposure adjusted for dose, relative to ebselen” value in data set [4] (intravenous, dose-adjusted) is recorded as “less than one third”.

`O=c1c2ccccc2[se]n1-c1ccccc1` [Ebselen]: the “Stability (peak area vs base line)” value in data set [1] (setting [5]) came to 113.1 ± 0.5%; in data set [1] (setting [6]), 108.2 ± 3.2%; in data set [1] (setting [7]), 97.2 ± 2.7%; in data set [1] (setting [8]), 110.3 ± 1.8%. The Albumin binding degree at BSA [2] is listed as 52–100%. Further, the Cytotoxicity entry in the data set with C1498 cells is given as “showed cytotoxicity”. The Extraction efficiency was determined as 9.3% on BSA [3] (setting [9]) and 90.7% on BSA [3] (setting [10]). Moreover, the “SeC-HSA (%)” value on human serum albumin is given as 91.5%. Further, the “SeC (%)” value on human serum albumin is given as 8.5%. Further, in data set [4] (plasma), the clearance was 0.177 mL/min. In data set [4] (plasma), this molecule came in with a half-life of 13.2 ± 2.4 min.

As to `C[Se](=O)O` [MeSeA, methylseleninic acid], the “Stability (peak area vs base line)” value in data set [1] (Processed sample (SeC-NEM derivative), 4 °C/24 hr) amounted to 106.7 ± 0.5%; in data set [1] (Processed sample (SeC-NEM derivative), -20 °C/24 hr) it was 103.2 ± 1.0%; in data set [1] (Processed sample (SeC-NEM derivative), Freeze-Thaw/5 Cycles), 104.3 ± 0.4%; in data set [1] (Processed sample (SeC-NEM derivative), RT/24 hr), 114.3 ± 0.3%; in data set [1] (setting [5]), 108.9 ± 4.8%; in data set [1] (setting [6]) it was 116.0 ± 3.2%. The figures for the “Stability (peak area vs base line)” value in data set [1] (setting [7]) and in data set [1] (setting [8]) were 117.3 ± 0.5% and 110.9 ± 2.0%, respectively. The Albumin binding degree at BSA [2] is on record as 52–100%. The Cytotoxicity entry with C1498 cells was “showed cytotoxicity”. For the same molecule, the Extraction efficiency on BSA [3] (setting [9]) is 0%; on BSA [3] (setting [10]), 94.8%. Further, on human serum albumin, the “SeC-HSA (%)” value was 100.0%. Also, the “SeC (%)” value at human serum albumin is recorded as 0%.

On BSA [2], `C[Se]C[C@H](N)C(=O)O` [MeSeCys, methylselenocysteine] displayed an Albumin binding degree below 3%. The Cytotoxicity entry in the data set with C1498 cells is “no cytotoxic effect”. Further, on BSA [3] (bovine, 20 µg/mL), the Extraction efficiency result was “over 95%”.

The molecule `C[Se]CC[C@H](N)C(=O)O` [SeMet, Selenomethionine] showed an Albumin binding degree at BSA [2] below 3%. In addition, the Cytotoxicity entry with C1498 cells is listed as “no cytotoxic effect”. Further, the Extraction efficiency result on BSA [3] (setting [9]) is “over 95%”.

For the molecule `N#C[Se]Cc1ccc(C[Se]C#N)cc1` [p-XSC, p-xyleneselenocyanate], the Albumin binding degree on BSA [2] was 52–100%. In the data set with C1498 cells, the Cytotoxicity entry is reported as “showed cytotoxicity”. In addition, at human serum albumin, the “SeC-HSA (%)” value is 100.0% and the “SeC (%)” value amounted to 0%. In data set [4] (in vivo), the clearance was 0.0967 mL/min and the half-life is 30.6 ± 7.2 min.
